The record followed here is PMC6973051, “Proline‐Rich Peptides with Improved Antimicrobial Activity against E. coli, K. pneumoniae, and A. baumannii” (Chemmedchem, 2019).

Ends that are not written are not given here. Where only a bound is given, the exact number is not on record here.

A word on the MIC: it is the lowest concentration that inhibits growth of the organism. High values mean weaker potency, low ones greater potency. As a reminder, the MBC is the smallest concentration meeting the test's criterion for killing.

Experiment [1] concerns E. coli BW25113. It counts as cell-based, Escherichia coli. The following applies: BW25113, 18 h. The source says:
(§1) The following bacterial strains were used: Escherichia coli BW25113, E. coli BW25113ΔsbmA (JW0368‐1, KEIO collection21); Acinetobacter baumannii ATCC 19606, Klebsiella pneumoniae ATCC 700603, Pseudomonas aeruginosa ATCC 27853 and Staphylococcus aureus ATCC 25923. The pathogenic E. coli EURL‐VTEC A07, E. coli EURL‐VTEC C07, E. coli SSI‐NN14, E. coli EA22, E. coli SSI‐OO15 and E. coli C679‐12 strains were generously provided by the European Union Reference Laboratory for E. coli, Department of Food Safety, Nutrition and Veterinary Public Health, Istituto Superiore di Sanità, Rome, Italy. All the strains were grown overnight in Müller‐Hinton broth (MHB, Difco) at 37 °C, with shaking (140 rpm). The day after, the overnight bacterial cultures were diluted approx. 1 : 40 in fresh MHB and incubated at 37 °C with shaking (140 rpm) until an OD600nm of ≈0.3 was reached. E. coli BW25113ΔsbmA was grown in the presence of 50 μg mL^−1 kanamycin.
(§2) Peptides were diluted in 100 μL of MHB to the concentration of 128 μM, dispensed in the first wells of a 96‐wells microtiter plate (round‐bottom) and serially two‐fold diluted with MHB into successive wells in a final volume of 50 μl. Subsequently, 50 μL of a bacterial suspension (5×10^5 CFU mL^−1) were added to each well, halving the final concentration of bacteria and peptides. Bacteria were added to MHB only as bacterial growth‐control, whereas 100 μl of MHB were used to check the medium sterility. The plate was incubated overnight at 37 °C (≈18 hours) and sealed with parafilm to minimise evaporation. The MIC was calculated as the first clear well without bacterial growth. If barely detectable growth was present, the OD600nm of the plate was measured by a multiplate reader Tecan (software Sunrise). The MIC was then calculated as the well whose OD620 was≤1 % of that of the untreated growth control.

Experiment [2] deals with E. coli C679‐12 EAEC:0104. It counts as cell-based, Escherichia coli. The following applies: C679‐12 EAEC:0104, 18 h.
Source text: as §1, §2

The subject of experiment [3] is E. coli EA22 ETEC. It counts as cell-based, Escherichia coli. The following applies: 18 h.
Source text: as §1, §2

Experiment [4] has as its system E. coli EURL‐VTEC A07 EPEC:O111. Type of experiment: cell-based, Escherichia coli. The following applies: EURL‐VTEC A07 EPEC:O111, 18 h.
Source text: as §1, §2

For experiment [5], the system named is E. coli EURL‐VTEC C07 STEC:O157. It counts as cell-based, Escherichia coli. The conditions noted are these: EURL‐VTEC C07 STEC:O157, 18 h.
Source text: as §1, §2

In experiment [6] the test system is E. coli SSI‐OO15 EIEC. It counts as cell-based, Escherichia coli. The following applies: 18 h.
Source text: as §1, §2

Experiment [7] concerns A. baumannii ATCC 19606. It counts as cell-based, Acinetobacter baumannii. The conditions noted are these: ATCC 19606, 18 h.
Source text: as §1
Peptides were diluted in 100 μL of MHB to the concentration of 128 μM, dispensed in the first wells of a 96‐wells microtiter plate (round‐bottom) and serially two‐fold diluted with MHB into successive wells in a final volume of 50 μl. […] The MIC was calculated as the first clear well without bacterial growth. If barely detectable growth was present, the OD600nm of the plate was measured by a multiplate reader Tecan (software Sunrise). […]

Experiment [8] concerns P. aeruginosa ATCC 27853. It counts as cell-based, Pseudomonas aeruginosa. The conditions noted are these: ATCC 27853, 18 h.
Source text: as §1, §2

Experiment [9] relates to S. aureus ATCC 25923. Type of experiment: cell-based, Staphylococcus aureus. The following applies: ATCC 25923, 18 h.
Source text: as §1, §2

For experiment [10], the system named is E. coli BW25113. Type of experiment: cell-based, Escherichia coli. The source says:
(§3) Table 3 MIC and MBC of the native Bac5(1–17) (wt) and selected Bac5‐derivatives on pathogenic and reference bacterial strains. | column: MBC (μM) / wt; MBC (μM) / 258; MBC (μM) / 272; MBC (μM) / 278; MBC (μM) / 281; MBC (μM) / 291

Experiment [11] concerns K. pneumoniae ATCC 700603. It counts as cell-based, Klebsiella pneumoniae.
Source text: as §3

In experiment [12] the test system is A. baumannii ATCC 19606. Type of experiment: cell-based, Acinetobacter baumannii.
Source text: as §3

The test system of experiment [13] is P. aeruginosa ATCC 27853. It counts as cell-based, Pseudomonas aeruginosa.
Source text: as §3

The test system of experiment [14] is S. aureus ATCC 25923. It counts as cell-based, Staphylococcus aureus.
Source text: as §3

In experiment [15] the test system is E. coli BW25113. The experiment is described as follows: Propidium iodide uptake by flow cytometry (membrane permeabilization). The following applies: 1 μM colistin (positive control), 30 min. It counts as cell-based, Escherichia coli. On the procedure:
The bacterial cell integrity was controlled evaluating the propidium iodide (PI) uptake by flow‐cytometry on a Cytomics FC 500 (Beckman‐Coulter). 10^4 bacterial cells were acquired for each measurement. Mid‐log phase E. coli BW25113 cultures diluted to 10^6 CFU mL^−1 in MHB were exposed for 30 min to 4 μM and 16 μM peptides at 37 °C in the presence of 10 μg mL^−1 PI. Membrane permeabilization was calculated as the % PI‐positive cells, and membrane damage measuring the mean fluorescence intensity (MFI). An untreated control received sterile water instead of peptides. By contrast, bacteria were treated with 1 μM colistin as a permeabilizing control. Data are reported as the average ± standard deviation.
In general terms: A flow cytometer gives signals particle by particle.

With “RFRPPIRRPPIRPPFYP [wt, reference compound]”, the MIC in [1] was 16 µM; in experiment [2], 16 µM; in experiment [3], 2 µM; in experiment [4], 16 µM; in experiment [5], over 64 µM; in [6], 16 µM. For the same substance, the MIC in experiment [7], in experiment [8] and in [9] was over 64 µM each time. In addition, the MBC in experiment [10], in experiment [11], in experiment [12], in experiment [13] and in [14] was over 64 µM throughout.

Consider RFRPPIRRPPIRPPFYR [compound 258], for which the MIC is 8 µM in [1]; 8 µM in [2]; 2 µM in [3]; 8 µM in experiment [4]; over 64 µM in [5]; 4 µM in experiment [6]. Besides, the MIC is 64 µM in experiment [7], over 64 µM in experiment [8] and over 64 µM in experiment [9]. Besides, the MBC was 64 µM in [10]; over 64 µM in [11]; 64 µM in experiment [12]; over 64 µM in experiment [13]; over 64 µM in experiment [14].

Substance “RFRPPIRRPPWRPPFYPG-NH2 (C-terminus assumed) [I11W]” came in with an MIC in [1] of 32 µM.

In experiment [1], RFRPPIRRPRIRPPFYPG-NH2 [P10R] returned an MIC of over 64 µM.

In [1], RFRPPIRRPSIRPPFYPG-NH2 [P10S] showed an MIC of 64 µM.

In turn, RFRPPIRRPWIRPPFYPG-NH2 [P10W] gave an MIC in [1] of 32 µM.

Take “RFRPPIRRRPIRPPFYPG-NH2 (C-terminus assumed) [P9R]”: the MIC in experiment [1] turned out to be 8 µM.

Turning to “RFRPPIRRSPIRPPFYPG-NH2 (C-terminus assumed) [P9S]”, the minimum inhibitory concentration (MIC) in [1] was 64 µM.

Consider “RFRPPIRRWPIRPPFYPG-NH2 (C-terminus assumed) [P9W]”, for which, in [1], the MIC worked out at 16 µM.

RFRPPIRSPPIRPPFYPG-NH2 [R8S]: the MIC in experiment [1] is over 64 µM.

In experiment [1], RFRPPIRWPPIRPPFYPG-NH2 [R8W] registered an MIC of 32 µM.

For the substance RFRPPISRPPIRPPFYPG-NH2 [R7S], the MIC in experiment [1] is over 64 µM.

On to RFRPPIWRPPIRPPFYPG-NH2 [R7W], for which the MIC in experiment [1] amounted to 64 µM.

Take “RFRPPPRRPPIRPPFYPG-NH2 (C-terminus assumed) [I6P]”: in [1], the MIC is over 64 µM.

For “RFRPPRRRPPIRPPFYPG-NH2 (C-terminus assumed) [I6R]”, the MIC in experiment [1] worked out at 16 µM.

Turning to “RFRPPSRRPPIRPPFYPG-NH2 (C-terminus assumed) [I6S]”, the MIC in experiment [1] stood at 64 µM.

Turning to “RFRPPWRRPPIRPPFYPG-NH2 (C-terminus assumed) [I6W]”, in [1], the MIC amounted to 8 µM.

Take “RFRPRIRRPPIRPPFYPG-NH2 (C-terminus assumed) [P5R]”: the MIC in [1] worked out at 16 µM.

In turn, “RFRPSIRRPPIRPPFYPG-NH2 (C-terminus assumed) [P5S]” showed an MIC in experiment [1] of 64 µM.

In experiment [1], “RFRPWIRRPPIRPPFYPG-NH2 (C-terminus assumed) [P5W]” had an MIC of 16 µM.

In [1], “RFRRPIRRPPIRPPFYPG-NH2 (C-terminus assumed) [P4R]” gave an MIC of 4 µM.

Turning to “RFRSPIRRPPIRPPFYPG-NH2 (C-terminus assumed) [P4S]”, the MIC in experiment [1] was determined as 16 µM.

On to RFRWPIRRPPIRPPFYR [compound 272], for which the MIC is 4 µM in experiment [1]; 2 µM in experiment [2]; 1 µM in experiment [3]; 2 µM in [4]; 8 µM in [5]; 1 µM in experiment [6]. Also, the MIC in experiment [9] is over 64 µM. Besides, the MBC in [10] is 8 µM; in [11] it was over 64 µM; in [12], 16 µM; in experiment [13], 64 µM; in experiment [14] it was over 64 µM.

Substance “RFRWPIRRPPIRPPFYRG-NH2 [272 (SPOT form)]” returned an MIC in experiment [1] of 4 µM.

In turn, RFSPPIRRPPIRPPFYPG-NH2 [R3S] had an MIC in experiment [1] of over 64 µM.

RFWPPIRRPPIRPPFYPG-NH2 [R3W] returned an MIC in experiment [1] of 32 µM.

In turn, “RGRPPIRRPPIRPPFYPG-NH2 (C-terminus assumed) [F2G]” gave an MIC in experiment [1] of 16 µM.

In turn, “RPRPPIRRPPIRPPFYPG-NH2 (C-terminus assumed) [F2P]” registered an MIC in experiment [1] of 64 µM.

Substance “RRRPPIRRPPIRPPFYPG-NH2 (C-terminus assumed) [F2R]” returned an MIC in experiment [1] of 16 µM.

Regarding “RSRPPIRRPPIRPPFYPG-NH2 (C-terminus assumed) [F2S]”, in experiment [1], the MIC was 64 µM.

As to RWRRPIRRRPIRPPFWR [compound 291], the MIC in [1] was found to be 2 µM; in [2], 1 µM; in experiment [3], 1 µM; in experiment [4], 2 µM; in experiment [5], 2 µM; in experiment [6], 1 µM. Also, the MBC was 8 µM in [10]; over 64 µM in [11]; 16 µM in [12]; over 64 µM in experiment [13]; 64 µM in [14].

With “RWRRPIRRRPIRPPFWRG-NH2 [291 (SPOT form)]”, in experiment [1], the MIC was 4 µM.

Turning to RWRRPIRRRPIRPPFYW [compound 281], the MIC in experiment [1] came to 2 µM; in [2], 2 µM; in experiment [3], 2 µM; in experiment [4] it was 2 µM; in [5] it was 2 µM; in experiment [6] it was 1 µM. Also, the MBC is 2 µM in experiment [10]; over 64 µM in experiment [11]; 8 µM in experiment [12]; 48 µM in experiment [13]; 32 µM in [14].

In [1], “RWRRPIRRRPIRPPFYWG-NH2 [281 (SPOT form)]” showed an MIC of 4 µM.

Turning to RWRWPIRRPPIRPPFYR [compound 278], the MIC in [1] was determined as 2 µM; in experiment [2] it was 2 µM; in experiment [3] it was 1 µM; in experiment [4] it was 1 µM; in experiment [5], 8 µM; in experiment [6] it was 1 µM. Besides, the MIC was 16 µM in experiment [8] and over 64 µM in experiment [9]. Moreover, the MBC in [10] was 4 µM; in [11], 48 µM; in [12], 8 µM; in [13], 64 µM; in experiment [14] it was over 64 µM.

For the substance “RWRWPIRRPPIRPPFYRG-NH2 [278 (SPOT form)]”, the MIC in [1] amounted to 4 µM.

SFRPPIRRPPIRPPFYPG-NH2 [R1S] had an MIC in [1] of over 64 µM.

As to WFRPPIRRPPIRPPFYPG-NH2 [R1W], in experiment [1], the MIC was 32 µM.

Regarding colistin, the “permeabilized bacterial cells (PI‐positive)” value in experiment [15] is reported as about 100%.
